Experimental data taken from patent publication US8796286B2, “Agent for treatment of liver diseases containing pyrazolopyrimidinone derivative” (Mezzion Pharma Co., Ltd., priority 2005, dated 2014).
Where two headings read alike, the source gives them in different places.

Tests used:
[1] = tested on: collagen synthesis in liver, hepatic fibrosis model; test: Liver protective effect in DMN-induced hepatic fibrosis animal model (collagen type I/III immunohistological staining); type: in vivo, Sprague Dawley rat; details: 10 mg/kg/day oral for 2 weeks; for collagen synthesis in hepatic portal veins and around the portal veins (immunohistology): DMN 10 mg/kg i.p. three times per week for 2 weeks, versus solvent control
Method: The following experiments were performed to investigate the in vivo collagen synthesis inhibitory effect of pyrazolopyrimidinone derivative of the present invention. Sprague Dawley white female rats (having approximately 300 g in weight) were divided into 4 groups (5 rats per group), and hepatic fibrosis was induced in experimental groups except the wild type control group (Toxicology, 2001). DMN (dimethylnitrosamine) was injected into the abdominal cavity in a dose of 10 mg/kg serially for 2 weeks with a dose frequency of three times per week. […] Only triazole buffer was administered to the solvent control group. Two weeks later, the liver was extracted, fixed in 10% neutral formalin, embedded in paraffin and sliced by […]. Each section was treated with xylene to eliminate paraffin, followed by treatment with alcohol and 0.1% hydrogen peroxide (H2O2). After treatment with PBS, the sections were treated with polyclonal antiserum (Chemicon) against collagen type I diluted by 1:500 and polyclonal antiserum (BioGenesis) against collagen type III diluted by 1:100, at 37° C. for one hour. After washing, samples were treated with 1:200 diluted biotin-conjugated goat anti-rabbit IgG. Immunohistological staining was performed by reacting the samples with avidin-biotin complex (Vector Laboratories), then antigen-antibody complex was marked with 3-amino-9-ethylcarbazole (AEC), whose image was taken by optical microscope now shown in FIG. 1-4. The control group was treated with non-immunized horse serum instead of primary antibody.

[2] = pKa (physicochemical properties)
[3] = Solubility (physicochemical properties)
[4] = In vivo pharmacokinetics in portal hypertension patients (plasma HPLC); details: human
Method: Nine volunteers among portal hypertension patients who were in the criterion of age from 19-45 and weight over 45 kg (within 15% deviation of ideal body weight) participated in experiments. They were all volunteers who agreed in writing to join the experiments and were trustworthy, cooperative and willing to follow the rules.
A double blind method was used for the experiments. At 8-9 am on the test day, test medicines were given with 240 mL of water to volunteers. For 4 hours from the administration, they were fasted, and lunch was provided 4 hours later and dinner was provided 9 hours later. Blood samples were taken before the administration on the test day and at the 0.5th, 1st, 1.5th, 2nd, 2.5th, 3rd, 4th, 5th, 6th, 8th, 12th, 24th and 32nd hour after the administration. Blood plasma was isolated, followed by HPLC. 100 μL of 0.1 M sodium carbonate and 1.0 mL of ethyl ether were added to 0.5 mL of blood plasma, then mixed well for 1 minute, followed by centrifugation at 12,000 rpm for 3 minutes. Supernatant was obtained and organic solvent was volatilized using speed vac. Then, 100 μL of moving phase was added, followed by stirring.

[5] = tested on: portal hypertension model; test: Portal hypertension animal model (bile duct ligation): portal blood pressure, portal vein diameter, blood flow; type: in vivo, beagle dog; details: 10 mg/kg/day oral for two weeks; for Portal vein diameter / Blood flow rate (portal vein) / Portal blood pressure: bile duct ligated beagle dogs, mean ± standard deviation; for Portal vein diameter: Doppler ultrasonography
Method: The following experiments were performed to investigate the effect of pyrazolopyrimidinone derivative on portal hypertension. 12 beagle dogs weighing about 10 kg were divided into four groups (3 dogs were chosen per group randomly), and bile duct ligation was performed on them. […] The animals were fasted for 4 hours, then pentobarbital was intravenously injected to anesthetize them. A tube was inserted through the mesenteric vein to the portal vein to measure portal blood pressure. Doppler ultrasonography was also performed to measure the diameter of portal vein. Blood flow through the portal vein was measured by using the following mathematical chemistry FIG. 1, and the result is shown in Table 2. [formula]

[6] = tested on: collagen synthesis in hepatic stellate cells; test: Inhibitory effect on collagen synthesis using hepatic stellate cells (RT-PCR for collagen); type: cell-based, Sprague Dawley rat; details: for IC50: Rattus norvegicus, hepatic stellate cells pre-treated with 25 ng/mL PDGF for 24 hours, collagen RT-PCR relative to beta-actin, mean ± standard deviation
Method: The following experiments were performed to investigate the inhibition effect of pyrazolopyrimidinone derivative of the present invention on collagen synthesis. Hepatic stellate cells were isolated from Sprague Dawley white male rats (about 300 g in weight, n=10). First, ketamin was injected into the abdominal cavity to anesthetize the rats. The abdomen was opened and heparin was injected into the portal vein. Then, Hank's buffer solution containing 0.02% pronase and 0.015% collagenase was perfused through the liver for a required time to prepare liver in sections. The extracted liver was crushed on a sterilized petri-dish, then put in a buffer solution containing pronase and DNase, and the crushed liver was then homogenized on a sterilized petri-dish. The prepared sample was filtered with 100 μm nylon mesh in a 50 mL tube. Centrifugation was performed with 50 g for 2 minutes to separate nonparenchymal cells in supernatant. Centrifugation was performed again with 450 g at 4° C. for 10 minutes. The precipitate was floated in a buffer solution containing 25 μg/mL of DNase, followed by centrifugation with 450 g at 4° C. for 10 minutes, which was repeated twice. The final precipitate was floated in 21 mL of buffer solution, which was then mixed with 17 mL of 25% OptiPrep to prepare the final solution of 11.2% OptiPrep (1.058 cm^3). Cell suspension solution mixed with OptiPrep was carefully distributed into four 15 mL tubes containing 3 mL of 17% OptiPrep, to which 1 mL of buffer solution was added. Centrifugation was performed with 1400 g at 4° C. for 17 minutes, and as a result, pure hepatic stellate cells were obtained from the opaque layer between the buffer solution and […]. The separated hepatic stellate cells were suspended in DMEM (Dulbecco's Modified Eagle' Media), followed by washing. The cells were suspended again in DMEM supplemented with 10% FBS (Fetal Bovine Serum) and antibiotics, then inoculated into a culture vessel, which was cultured in a 37° C. 5% CO2 incubator. The culture medium was first replaced 24 hours later, and then replaced every 48 hours for sub-culture. Hepatic stellate cells sub-cultured 8 times were grouped by 2×10^5, which were pre-treated with 25 ng/mL of PDGF (Platelet Derived Growth Factor) for 24 hours. […] The total RNA was extracted and RT-PCR (Reverse Transcriptase Polymerase Chain Reaction) for collagen was performed. Based on the relative concentration to beta-actin, a target material was compared with other test samples. In order to determine the inhibitory effect of a target sample on collagen synthesis, inhibitory concentration 50% (IC50) was investigated, and the result is shown in Table 1.

[7] = tested on: experimental cirrhosis models; details: dose-dependently; cited from earlier work

Structure (SMILES)	collagen synthesis in hepatic portal veins and around the portal veins (immunohistology) [1]	blood flow rate through portal vein increase compared with solvent treated group [5]	portal blood pressure decrease compared with solvent treated control group [5]	Portal vein diameter [5]	Blood flow rate (portal vein) [5]	Portal blood pressure [5]	IC50 [6]	also measured
CCCOc1ccc(S(=O)(=O)NCCC2CCCN2C)cc1-c1nc2c(CCC)nn(C)c2c(=O)[nH]1 (stereo not shown) [Pyrazolopyrimidinone derivative, 5-[2-propyloxy-5-(1-methyl-2-pyrrolidinylethyl amidosulfonyl)phenyl]-1-methyl-3-propyl-1,6-dihydro-7H-pyrazolo(4,3-d)pyrimidin-7-one]	remarkably inhibited	59.9%	21%	7.70 ± 0.26 mm	932.31 ± 89.83 mL/min	2.50 ± 0.20 kPa	0.8 ± 0.2 nM	inhibition of collagen synthesis compared with the sildenafil treated group ([1]; DMN rats): greater than that in the sildenafil treated group; pKa1 [2]: 6.5; pKa2 [2]: 12.5; solubility in acetic acid, methanol and chloroform ([3]; acetic acid, methanol and chloroform): soluble; solubility in water ([3]; water): insoluble; half-life, fold longer than vardenafil ([4]; in vivo): two fold; half-life ([4]; in vivo, po, 100 mg): 15.1 ± 3.5 h; collagen synthesis inhibitory effect, times higher than sildenafil ([6]; ratio of IC50 versus sildenafil): 16 times; collagen synthesis inhibitory effect, times higher than vardenafil ([6]; ratio of IC50 versus vardenafil): 10 times; collagen synthesis inhibitory effect, times as excellent as other conventional PDE 5 inhibitors ([6]; versus other conventional PDE 5 inhibitors (Table 1)): 10-16 times
CCCc1nn(C)c2c(=O)[nH]c(-c3cc(S(=O)(=O)N4CCN(C)CC4)ccc3OCC)nc12 [Sildenafil, sildenafil]	remarkably inhibited	29.1%	7%	7.47 ± 0.21 mm	754.47 ± 80.24 mL/min	2.93 ± 0.25 kPa	13.1 ± 2.3 nM	half-life ([4]; plasma, patients with portal hypertension, 50 mg oral, mean ± standard deviation, read-out: Half-life (converted)): 4.5 ± 1.2 h; Portal blood pressure [7]: increases; blood flow through mesenteria [7]: increases
CCCc1nc(C)c2c(=O)[nH]c(-c3cc(S(=O)(=O)N4CCN(CC)CC4)ccc3OCC)nn12 [Vardenafil, vardenafil]	–	24.8%	9%	7.43 ± 0.21 mm	729.29 ± 83.23 mL/min	2.87 ± 0.25 kPa	7.8 ± 1.7 nM	half-life ([4]; plasma, patients with portal hypertension, 10 mg oral, mean ± standard deviation, read-out: Half-life (converted)): 6.3 ± 2.1 h
